Measurements from patent US8551972B2, “Agonists of A2A adenosine receptors for treating recurrent tumor growth” (Adenosine Therapeutics, LLC, priority 2007, dated 2013).
Entries after “also recorded” stand apart in the source; their conditions may differ.

Test system: C26 colorectal carcinoma liver metastases
Assay: Mouse model of hepatic ischemia/reperfusion (I/R)-accelerated outgrowth of C26 colorectal liver metastases
Assay type: in vivo, mouse (male Balb/C)
Conditions: for ratio of hepatic replacement area (HRA) values in ischemic (clamped) left liver lobes versus non-ischemic right and median liver lobes: FIG. 4, I/R-subjected mice, day 10, sham about 1, untreated I/R about 2.5-fold; for accelerated (necrosis-associated) tumor growth in the clamped left liver lobes following I/R: left lobar I/R on day 5, livers day 10, ZM241385 1 micro-g/kg bolus + 10 ng/kg/min minipump, 3 days
Excerpt: A mouse model has been enabled in which selective temporary occlusion of blood flow into the left liver lobe results in a profound acceleration of tumor growth in the clamped liver lobes, but not in the unclamped liver lobes. An A2A receptor agonist was then studied to determine its effect on the accelerated tumor growth.
• Male Balb/C mice (10-12 weeks) are housed under standard laboratory conditions with free access to water and chow and a 12-hour dark-light cycle. 2. Before the Experiment: Cell Culture • The murine colon carcinoma cell line C26 is cultured in Dulbecco's modified Eagle's medium supplemented with 5% heat-inactivated fetal calf serum, penicillin (100 units/ml) and streptomycin (100 μg/ml) in a 5% carbon dioxide environment. 3. Day 0: Induction of Liver Metastases • Confluent cultures of the C26 cell line are harvested by brief trypsinization (0.05 trypsin in 0.02% EDTA). • After centrifugation, single cell suspensions are prepared in PBS to a final concentration of 5×10^4 cells/100 μl. • Cell viability is determined by trypan blue staining, and should be ≧98%. • The induction of liver metastases is performed under inhalation anesthesia with a 1.5-2% isoflurane/O2 mixture using a mask. • Buprenorfine (3 μg/mouse) is administered intramuscularly prior to surgery to provide sufficient intra- and postoperative analgesia. • Surgical procedures are performed under aseptic conditions. • Body temperature is maintained at 36.5-37.5° C. by placing the animals on a heated table and covering them by aluminium foil. • Through a left lateral flank incision, 5×10^4 C26 colorectal carcinoma cells are injected into the splenic parenchyma (within an hour after trypsinisation). • After ten minutes, the spleen is removed to prevent intrasplenic tumor growth. • After the procedure a small amount of saline is left in the abdominal cavity and the peritoneum and skin are separately closed with 5.0 vicryl. • Animals are allowed to recover from anesthesia under standard laboratory conditions and are allowed free access to water and chow. 4. Day 0-5: • Micrometastases are allowed to develop throughout the liver for 5 days. 5. Day 5: Marine Model of Hepatic I/R • The induction of hepatic I/R is performed under inhalation anesthesia with a 1.5-2% isoflurane/O2 mixture using a mask. • Buprenorfine (3 μg/mouse) is administered intramuscularly prior to surgery to provide sufficient intra- and postoperative analgesia. • Surgical procedures are performed under aseptic conditions. • Body temperature is maintained at 36.5-37.5° C. by placing the animals on a heated table and covering them by aluminium foil. • ATL-313 solutions are prepared and suspended in osmotic minipumps (Alzet) at a dose of 3 ng/kg/min. Minipumps are placed in normal saline at 37° C. for at least 4 hours prior to the operation, to allow immediate drug delivery. • After laparotomy, mice receive an intraperitoneal bolus injection of 1 ng/kg ATL-313. • A control group received the A2AR antagonist ZM241385 as an intraoperative bolus (1 micro-g/kg) and subsequently continuously using osmotic intraperitoneal minipumps (10 ng/kg/min; 3 days). • Sham operated mice undergo laparotomy with exposure of the liver but without interruption of hepatic flow. • Partial hepatic I/R is induced by occluding the vascular inflow of the left lateral liver lobe for 45 minutes, corresponding to approximately 40% of the liver mass. • Surgical foil is placed over the laparotomy wound to avoid dehydration. • After removal of the clamps a small amount of saline is left in the abdominal cavity • The peritoneum and skin are separately closed with 5.0 vicryl. 6. Day 5-10: • Micrometastases are allowed to grow out to macrometastases (approximately 10-20% of the non-clamped lobes at day 10) for 5 days 7. Day 10: • Livers were harvested, fixed in formalin, and embedded in paraffin. Tissue sections were stained with H&E and the following parameters were assessed by an operator who was blinded to treatment. • 1. […]

[1] = ATL-313 1 ng/kg bolus + 3 ng/kg/min minipump

**Q.** How did the “ratio of hepatic replacement area (HRA) values in ischemic (clamped) left liver lobes versus non-ischemic right and median liver lobes” value turn out when `COC(=O)N1CCC(CC#Cc2nc(N)c3ncn(C4OC(C(=O)NC5CC5)C(O)C4O)c3n2)CC1` (stereo not shown) [ATL313, 4-{3-[6-Amino-9-(5-cyclopropylcarbamoyl-3,4-dihydroxy-tetrahydro-furan-2-yl)-9H-purin-2-yl]-prop-2-ynyl}-piperidine-1-carboxylic Acid methyl ester] was run?
**A.** 1

**Q.** And the “tissue necrosis (liver)” value (left lobar I/R on day 5 (45 min clamping), livers harvested day 10, H&E, ATL-313 1 ng/kg i.p. bolus + 3 ng/kg/min osmotic minipump)?
**A.** prevents; also recorded: almost completely prevented

**Q.** What about the “accelerated (necrosis-associated) tumor growth in the clamped left liver lobes following I/R” value (shortened to “accelerated”) [1] of the same molecule?
**A.** prevents; also recorded: almost completely prevented

**Q.** What about the “accelerated” value (ATL-313 1 ng/kg bolus + 3 ng/kg/min minipump, listed as ATL) of the same molecule?
**A.** prevents the increase in tumor growth

**Q.** And the “inflammation following I/R” value (left lobar I/R on day 5, ATL-313 1 ng/kg bolus + 3 ng/kg/min minipump)?
**A.** almost completely prevented

**Q.** `Nc1nc(NCCc2ccc(O)cc2)nc2nc(-c3ccco3)nn12` [ZM241385, reference compound] was tested. Which “ratio of hepatic replacement area (HRA) values in ischemic (clamped) left liver lobes versus non-ischemic right and median liver lobes” value did it give?
**A.** increasing the left-to-right/median ratio, although this difference did not reach statistical significance

**Q.** And the “accelerated” value [1]?
**A.** appears to aggravate tumor growth
